Source: ChEMBL document CHEMBL1128655, “3-Fluoro-2-(4-methylpiperazin-1-yl)-5,12-dihydro-5-oxobenzoxazolo[3,2-a]quinoline-6-carboxylic acid: Synthesis and In vitro cytotoxic activity” (Bioorg Med Chem Lett, 1995)
Values after ≈ are worked out from the molar mass of the structure shown.

How the values were obtained:
Type in all cases: functional, cell-based
SNU1 = assay: In vitro cytotoxic activity against human tumor SNU 1 (stomach) cell line
SNU-354 = assay: In vitro cytotoxic activity against human tumor SNU 354 (liver) cell line
SNU-C4 = assay: In vitro cytotoxic activity against human tumor SNU C-4(colon) cell line
[1] = Homo sapiens, SNU1, read-out: IC50
[2] = Homo sapiens, SNU-354, read-out: IC50
[3] = Homo sapiens, SNU-C4, read-out: IC50

Compound	IC50 (SNU1; [1]) [µg/mL]	IC50 (SNU-354; [2]) [µg/mL]	IC50 (SNU-C4; [3]) [µg/mL]	IC50 (SNU1; snu1) [µg/mL]	IC50 (SNU-354; snu-354) [µg/mL]	IC50 (SNU-C4; snu-c4) [µg/mL]
O=C(O)c1c(=O)c2cc(F)c(N3CCNCC3)cc2n2c1oc1ccccc12	15.3 (≈ 40.1 µM)	19.8 (≈ 51.9 µM)	13.4 (≈ 35.1 µM)	–	–	–
CN1CCN(c2cc3c(cc2F)c(=O)c(C(=O)O)c2oc4ccccc4n23)CC1.Cl	2	1.9	1.8	–	–	–
CC(=O)N1CCN(c2cc3c(cc2F)c(=O)c(C(=O)O)c2oc4ccccc4n23)CC1	> 200	> 200	> 200	–	–	–
COc1cccc2c1C(=O)c1c(O)c3c(c(O)c1C2=O)C[C@@](O)(C(=O)CO)C[C@@H]3O[C@H]1C[C@H](N)[C@H](O)[C@H](C)O1 [DOXORUBICIN]	< 0.5	< 0.5	< 0.5	–	–	–
CISPLATIN	–	–	–	1.4	4.1	2.8
